Data published in PubChem BioAssay AID2060619 (Molecular Pharmacology Branch, DTP, NCI, 2025).

System: 323965-272-R-J2-PDC complex spheroid viability
Assay: Anticancer human tumor 323965-272-R-J2-PDC patient-derived pancreatic carcinoma cell line growth inhibition [CLK]
Settings: for IC50: curve of first compound; for viability, T/C: stronger effect = lower value
Method in brief: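 Multi-cell-type spheroids combined patient-derived tumor cells with HUVEC endothelial cells and human mesenchymal stem cells. Paired agents were dosed in half-log steps down from about clinical Cmax, or from 10 microM where Cmax was unknown.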

[1] = second compound 0.0316 µM, first compound 0.0316 µM
[2] = second compound 0.0316 µM, first compound 0.1 µM
[3] = second compound 0.0316 µM, first compound 0.316 µM
[4] = second compound 0.0316 µM, first compound 1 µM
[5] = second compound 0.0316 µM, first compound 3.16 µM
[6] = second compound 0.0316 µM, first compound 10 µM
[7] = second compound 0.1 µM, first compound 0.0316 µM
[8] = second compound 0.1 µM, first compound 0.1 µM
[9] = second compound 0.1 µM, first compound 0.316 µM
[10] = second compound 0.1 µM, first compound 1 µM
[11] = second compound 0.1 µM, first compound 3.16 µM
[12] = second compound 0.1 µM, first compound 10 µM
[13] = second compound 0.316 µM, first compound 0.0316 µM
[14] = second compound 0.316 µM, first compound 0.1 µM
[15] = second compound 0.316 µM, first compound 0.316 µM
[16] = second compound 0.316 µM, first compound 1 µM
[17] = second compound 0.316 µM, first compound 3.16 µM
[18] = second compound 0.316 µM, first compound 10 µM
[19] = second compound 1 µM, first compound 0.0316 µM
[20] = second compound 1 µM, first compound 0.1 µM
[21] = second compound 1 µM, first compound 0.316 µM
[22] = second compound 1 µM, first compound 1 µM
[23] = second compound 1 µM, first compound 3.16 µM
[24] = second compound 1 µM, first compound 10 µM
[25] = second compound 3.16 µM, first compound 0.0316 µM
[26] = second compound 3.16 µM, first compound 0.1 µM
[27] = second compound 3.16 µM, first compound 0.316 µM
[28] = second compound 3.16 µM, first compound 1 µM
[29] = second compound 3.16 µM, first compound 3.16 µM
[30] = second compound 3.16 µM, first compound 10 µM
[31] = second compound 10 µM, first compound 0.0316 µM
[32] = second compound 10 µM, first compound 0.1 µM
[33] = second compound 10 µM, first compound 0.316 µM
[34] = second compound 10 µM, first compound 1 µM
[35] = second compound 10 µM, first compound 3.16 µM
[36] = second compound 10 µM, first compound 10 µM
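Also: spheroids exposed to agents for seven days before readout.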
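For viability, T/C in this document: percent of DMSO vehicle control wells so 100% = untreated growth.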

In the case of `CCCS(=O)(=O)Nc1ccc(F)c(C(=O)c2c[nH]c3ncc(-c4ccc(Cl)cc4)cc23)c1F` + CNC(=O)c1ccc(Nc2nc(OC3CCCC3)c3c(-c4ccc5nc(C)oc5c4)c[nH]c3n2)c(OC)c1, the IC50 (second compound 0.0316 µM) is reported as greater than 10000 nM, the IC50 (second compound 0.1 µM) is reported as greater than 10000 nM and the IC50 (second compound 0.316 µM) is reported as greater than 10000 nM. It also gave an IC50 (second compound 1 µM) greater than 10000 nM, an IC50 (second compound 3.16 µM) of less than 31.6 nM and an IC50 (second compound 10 µM) of less than 31.6 nM. It also gave a viability, T/C [1] of 106%, a viability, T/C [2] of 113% and a viability, T/C [3] of 116%. It also gave a viability, T/C [4] of 127%, a viability, T/C [5] of 127% and a viability, T/C [6] of 106%. For the same molecule, the viability, T/C [7] was 94.3%, the viability, T/C [8] was 88.2% and the viability, T/C [9] was 97.5%. For the same molecule, the viability, T/C [10] was 98.3%, the viability, T/C [11] was 90% and the viability, T/C [12] was 79.9%. It also gave a viability, T/C [13] of 72.5%, a viability, T/C [14] of 74.8% and a viability, T/C [15] of 78%. It also gave a viability, T/C [16] of 78.8%, a viability, T/C [17] of 88.8% and a viability, T/C [18] of 72%. It also gave a viability, T/C [19] of 47.8%, a viability, T/C [20] of 59.6% and a viability, T/C [21] of 64.8%. The viability, T/C [22] was 71%, the viability, T/C [23] was 60.9% and the viability, T/C [24] was 60.2%. It also gave a viability, T/C [25] of 47.6%, a viability, T/C [26] of 54.7% and a viability, T/C [27] of 53.6%. For the same molecule, the viability, T/C [28] was 49.2%, the viability, T/C [29] was 61.5% and the viability, T/C [30] was 59.2%. For the same molecule, the viability, T/C [31] was 42.5%, the viability, T/C [32] was 50.6% and the viability, T/C [33] was 47.8%. It also gave a viability, T/C [34] of 58.8%, a viability, T/C [35] of 67.2% and a viability, T/C [36] of 61.4%.

`C#Cc1c(F)ccc2cc(O)cc(-c3ncc4c(N5CC6CCC(C5)N6)nc(OCC56CCCN5CC(F)C6)nc4c3F)c12` (centres undefined) + CNC(=O)c1ccc(Nc2nc(OC3CCCC3)c3c(-c4ccc5nc(C)oc5c4)c[nH]c3n2)c(OC)c1 was tested, and the IC50 (second compound 0.0316 µM) was greater than 10000 nM, the IC50 (second compound 0.1 µM) was 2630 nM and the IC50 (second compound 0.316 µM) was 633 nM. The IC50 (second compound 1 µM) was less than 31.6 nM, the IC50 (second compound 3.16 µM) was less than 31.6 nM and the IC50 (second compound 10 µM) was less than 31.6 nM. The viability, T/C [1] was 92.6%, the viability, T/C [2] was 88.8% and the viability, T/C [3] was 98.8%. It also gave a viability, T/C [4] of 74.3%, a viability, T/C [5] of 62.6% and a viability, T/C [6] of 51.4%. It also gave a viability, T/C [7] of 75%, a viability, T/C [8] of 77.9% and a viability, T/C [9] of 62.5%. It also gave a viability, T/C [10] of 58.7%, a viability, T/C [11] of 47.8% and a viability, T/C [12] of 38.6%. For the same molecule, the viability, T/C [13] was 58.9%, the viability, T/C [14] was 59.8% and the viability, T/C [15] was 51.9%. For the same molecule, the viability, T/C [16] was 49.3%, the viability, T/C [17] was 35.8% and the viability, T/C [18] was 32.3%. For the same molecule, the viability, T/C [19] was 43.2%, the viability, T/C [20] was 37.7% and the viability, T/C [21] was 42.4%. It also gave a viability, T/C [22] of 39.3%, a viability, T/C [23] of 30.8% and a viability, T/C [24] of 23.2%. The viability, T/C [25] was 36.5%, the viability, T/C [26] was 43.9% and the viability, T/C [27] was 36.8%. The viability, T/C [28] was 33.5%, the viability, T/C [29] was 26% and the viability, T/C [30] was 20.2%. For the same molecule, the viability, T/C [31] was 39.6%, the viability, T/C [32] was 38.2% and the viability, T/C [33] was 38.1%. It also gave a viability, T/C [34] of 29.8%, a viability, T/C [35] of 25.7% and a viability, T/C [36] of 19.6%.
